According to patent US20110015162A1, “15,16-Methylene-17-hydroxy-19-nor-21-carboxylic acid-steroid Y-lactone derivative, use thereof and medicinal products containing the derivative” (Bayer Schering Pharma Aktiengesellschaft, priority 2007, published 2011):
Read-outs that look alike come from different tables or passages of the source.

Experiments:
progesterone receptor = biological target: T1, progesterone receptor (Homo sapiens, UniProt P06401); assay: Progesterone receptor binding test; details: for Progesterone receptor (PR) Competition factor: CF 1 = affinity of progesterone, CF >1 lower affinity, <1 higher affinity; for CF PR/CF MR: ratio of competition factors CF(PR) and CF(MR)
T1 construct: made in house; host or cells: Hi5 insect cells (cytosol)
T1 sequence (P06401 1-933): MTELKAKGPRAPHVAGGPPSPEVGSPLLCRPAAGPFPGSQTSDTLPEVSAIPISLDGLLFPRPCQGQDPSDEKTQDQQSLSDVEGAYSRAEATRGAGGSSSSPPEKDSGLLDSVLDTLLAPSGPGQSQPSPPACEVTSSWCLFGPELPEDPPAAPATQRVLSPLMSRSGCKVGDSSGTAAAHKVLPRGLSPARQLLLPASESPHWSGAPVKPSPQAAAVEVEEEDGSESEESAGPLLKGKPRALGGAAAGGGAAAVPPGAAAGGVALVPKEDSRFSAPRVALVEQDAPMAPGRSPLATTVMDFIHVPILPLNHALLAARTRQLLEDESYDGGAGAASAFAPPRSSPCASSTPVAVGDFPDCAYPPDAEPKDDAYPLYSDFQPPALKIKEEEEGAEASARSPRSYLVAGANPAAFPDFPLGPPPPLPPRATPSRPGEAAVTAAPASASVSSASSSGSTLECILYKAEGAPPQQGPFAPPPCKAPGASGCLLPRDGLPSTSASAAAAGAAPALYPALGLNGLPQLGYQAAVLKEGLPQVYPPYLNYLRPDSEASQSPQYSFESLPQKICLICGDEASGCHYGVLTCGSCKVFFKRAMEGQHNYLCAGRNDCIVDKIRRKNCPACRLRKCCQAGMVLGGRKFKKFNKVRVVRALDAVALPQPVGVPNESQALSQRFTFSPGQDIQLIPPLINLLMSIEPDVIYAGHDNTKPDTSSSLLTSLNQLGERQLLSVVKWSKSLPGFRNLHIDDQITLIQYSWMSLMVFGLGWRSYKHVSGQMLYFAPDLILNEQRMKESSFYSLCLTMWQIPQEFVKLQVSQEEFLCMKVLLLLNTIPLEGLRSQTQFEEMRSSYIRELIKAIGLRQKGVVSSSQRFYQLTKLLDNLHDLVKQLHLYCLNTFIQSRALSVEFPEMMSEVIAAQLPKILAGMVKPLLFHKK
Experimental: 1. Progesterone Receptor Binding Test:
Using cytosol from progesterone receptor-expressing insect cells (Hi5), competitive binding to the progesterone receptor was determined from the ability to displace ^3H-progesterone as reference substance from the receptor.

[1] = biological target: T2, mineralocorticoid receptor (Homo sapiens, UniProt P08235); assay: Antimineralocorticoid action by transactivation test (MDCK reporter cells); format: cell-based; set-up: expressed in transfected cells; host or cells: MDCK cells; details: for Emax: read-out: Mineralocorticoid receptor Antagonism efficacy;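 on Emax: percent inhibition of the aldosterone-stimulated reporter signal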;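 on Mineralocorticoid receptor Antagonism efficacy: percent inhibition of the aldosterone-stimulated reporter signal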
T2 sequence (P08235 1-984): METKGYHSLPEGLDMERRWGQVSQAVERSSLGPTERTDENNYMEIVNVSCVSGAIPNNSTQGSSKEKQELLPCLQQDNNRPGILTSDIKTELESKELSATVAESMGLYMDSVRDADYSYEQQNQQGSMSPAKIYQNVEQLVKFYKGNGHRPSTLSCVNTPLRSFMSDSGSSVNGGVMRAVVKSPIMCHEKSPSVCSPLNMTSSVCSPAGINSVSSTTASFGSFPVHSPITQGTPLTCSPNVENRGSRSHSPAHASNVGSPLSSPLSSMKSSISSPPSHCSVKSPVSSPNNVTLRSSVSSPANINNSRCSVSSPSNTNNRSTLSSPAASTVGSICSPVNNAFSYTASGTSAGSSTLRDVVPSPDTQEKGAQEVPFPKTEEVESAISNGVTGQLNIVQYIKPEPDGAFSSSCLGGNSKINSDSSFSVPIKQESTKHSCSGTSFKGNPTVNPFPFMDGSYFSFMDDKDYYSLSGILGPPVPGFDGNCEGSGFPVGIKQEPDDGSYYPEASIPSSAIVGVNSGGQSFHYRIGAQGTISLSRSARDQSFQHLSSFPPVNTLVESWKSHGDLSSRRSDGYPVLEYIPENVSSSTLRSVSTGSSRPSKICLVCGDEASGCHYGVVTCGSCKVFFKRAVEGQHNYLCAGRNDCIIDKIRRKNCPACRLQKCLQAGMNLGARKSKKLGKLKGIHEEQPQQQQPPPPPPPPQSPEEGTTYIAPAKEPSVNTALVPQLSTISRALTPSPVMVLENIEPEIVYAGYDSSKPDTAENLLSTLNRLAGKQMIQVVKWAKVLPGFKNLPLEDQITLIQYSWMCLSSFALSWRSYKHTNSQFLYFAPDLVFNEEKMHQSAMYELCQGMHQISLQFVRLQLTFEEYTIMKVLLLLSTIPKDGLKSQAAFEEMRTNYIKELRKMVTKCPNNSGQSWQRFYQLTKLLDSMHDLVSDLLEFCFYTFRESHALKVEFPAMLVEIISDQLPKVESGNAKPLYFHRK
Experimental: The test compounds were added eight hours later, and the cells were incubated with the compounds for 16 hours. The tests were carried out in triplicate. At the end of incubation the medium containing the effector was removed and replaced with lysis buffer. After luciferase assay substrate (Promega, #E1501) had been added, the 96-well plates were then put in a microplate luminometer (Pherastar, BMG Labtech), and the luminescence was measured. The IC50 values were evaluated using software for calculating dose-effect relations.
5. Determination of Antimineralocorticoid Action by Means of Transactivation Tests:
The antimineralocorticoid activity of the test substances was determined as for the transactivation tests described above.
The following modifications were undertaken: In this case reporter cell lines were used (MDCK cells) that express the human mineralocorticoid receptor, and transiently contain a reporter construct that contains luciferase under the control of a steroid hormone-responsive promoter.

[2] = displacement of 3H-progesterone, cytosol from PR-expressing insect cells (Hi5), read-out: Progesterone receptor (PR) IC50
[3] = MDCK cells, with 1 nM aldosterone, read-out: Mineralocorticoid receptor Antagonism IC50
[4] = MDCK cells, with 1 nM aldosterone

Structure (SMILES) | IC50 (progesterone receptor) [nM] | Progesterone receptor (PR) Competition factor (progesterone receptor) | CF PR/CF MR (progesterone receptor) | IC50 [1] [nM] | Emax ([1]; MDCK) [%] | IC50 (progesterone receptor; [2]) [nM] | IC50 [1, 3] [nM] | Emax [1, 4] [%]
CC[C@]12CC[C@H]3[C@@H]([C@H]4C[C@H]4C4=CC(=O)CC[C@@H]43)[C@@H]1[C@@H]1C[C@@H]1[C@@]21C=CC(=O)O1 [Example 1, 6β,7β;15β,16β-Bismethylene-17β-hydroxy-18-methyl-19-nor-17α-pregna-4,20(Z)-dien-3-one-21-carboxylic acid γ-lactone] | 41 | 0.76 | 0.48 | 10 | 79.5 | – | – | –
CC[C@]12CC[C@H]3[C@@H]([C@@H]4C[C@@H]4C4=CC(=O)CC[C@@H]43)[C@@H]1[C@@H]1C[C@@H]1[C@@]21C=CC(=O)O1 [Example 2, 6α,7α;15β,16β-Bismethylene-17β-hydroxy-18-methyl-19-nor-17α-pregna-4,20(Z)-dien-3-one-21-carboxylic acid γ-lactone] | 630 | 24.37 | 5.54 | 230 | 112 | – | – | –
CC[C@]12CC[C@H]3[C@@H](C=CC4=CC(=O)CC[C@@H]43)[C@@H]1[C@@H]1C[C@@H]1[C@@]21C=CC(=O)O1 [Example 3, 17β-Hydroxy-18-methyl-15β,16β-methylene-19-nor-17α-pregna-4,6,20(Z)-trien-3-one-21-carboxylic acid γ-lactone] | 72 | 2.72 | 1.81 | 22 | 97.6 | – | – | –
CC[C@]12CC[C@H]3[C@H]([C@@H]1[C@@H]1C[C@@H]1[C@@]21C=CC(=O)O1)[C@H](C)CC1=CC(=O)CC[C@@H]13 [Example 4A, 7α,18-Bismethyl-17β-hydroxy-15β,16β-methylene-19-nor-17α-pregna-4,20(Z)-dien-3-one-21-carboxylic acid γ-lactone] | 48 | 2.66 | 4.43 | 3 | 99.9 | – | – | –
CC[C@@H]1CC2=CC(=O)CC[C@@H]2[C@H]2CC[C@@]3(CC)[C@@H]([C@@H]4C[C@@H]4[C@@]34C=CC(=O)O4)[C@H]12 [Example 5A, 17β-Hydroxy-7α-ethyl-18-methyl-15β,16β-methylene-19-nor-17α-pregna-4,20(Z)-dien-3-one-21-carboxylic acid γ-lactone] | 300 | 12.00 | 12.00 | – | – | – | – | –
C=C[C@@H]1CC2=CC(=O)CC[C@@H]2[C@H]2CC[C@@]3(CC)[C@@H]([C@@H]4C[C@@H]4[C@@]34C=CC(=O)O4)[C@@H]21 [Example 6A, 17β-Hydroxy-7α-vinyl-18-methyl-15β,16β-methylene-19-nor-17α-pregna-4,20(Z)-dien-3-one-21-carboxylic acid γ-lactone] | 120 | 4.85 | 3.23 | 9 | 102 | – | – | –
CC[C@]12CC[C@H]3[C@H]([C@@H]1[C@@H]1C[C@@H]1[C@@]21C=CC(=O)O1)[C@H](C1CC1)CC1=CC(=O)CC[C@@H]13 [Example 7A, 17β-Hydroxy-7α-cyclopropyl-18-methyl-15β,16β-methylene-19-nor-17α-pregna-4,20(Z)-dien-3-one-21-carboxylic acid γ-lactone] | 380 | 14.22 | 3.03 | 77 | 102 | – | – | –
CC[C@]12CC[C@H]3[C@@H]([C@H]4C[C@H]4C4=C(Cl)C(=O)CC[C@@H]43)[C@@H]1[C@@H]1C[C@@H]1[C@@]21C=CC(=O)O1 [Example 8, 6β,7β;15β,16β-Bismethylene-4-chloro-17β-hydroxy-18-methyl-19-nor-17α-pregna-4,20(Z)-dien-3-one-21-carboxylic acid γ-lactone] | – | 31.12 | 1.07 | – | – | 740 | 960 | 31.1
CC[C@]12CC[C@H]3[C@@H](CCC4=CC(=O)CC[C@@H]43)[C@@H]1[C@@H]1C[C@@H]1[C@@]21C=CC(=O)O1 [Example 9, 17β-Hydroxy-18-methyl-15β,16β-methylene-19-nor-17α-pregna-4,20(Z) dien-3-one-21-carboxylic acid γ-lactone] | 78.5 | 1.65 | 1.50 | 3 | 27.8 | – | – | –
CC[C@]12CC[C@H]3[C@@H](C[C@@H](CO)C4=CC(=O)CC[C@@H]43)[C@@H]1[C@@H]1C[C@@H]1[C@@]21C=CC(=O)O1 [Example 10, 17β-Hydroxy-6β-hydroxymethylene-18-methyl-15β,16β-methylene-19-nor-17α-pregna-4,20(Z)-dien-3-one-21-carboxylic acid γ-lactone] | – | 4000.00 | inactive | – | – | – | 110 | 92.7
C[C@]12CC[C@H]3[C@@H](CCC4=CC(=O)CC[C@@H]43)[C@@H]1[C@H]1C[C@H]1[C@@]21C=CC(=O)O1 [Example 12, 17β-Hydroxy-15α,16α-methylene-19-nor-17α-pregna-4,20(Z)-dien-3-one-21-carboxylic acid γ-lactone] | 49 | 1.50 | 0.52 | 100 | 71.4 | – | – | –
C[C@]12CC[C@H]3[C@@H](C=CC4=CC(=O)CC[C@@H]43)[C@@H]1[C@H]1C[C@H]1[C@@]21C=CC(=O)O1 [Example 13, 17β-Hydroxy-15α,16α-methylene-19-nor-17α-pregna-4,6,20(Z)-trien-3-one-21-carboxylic acid γ-lactone] | – | 7.89 | 4.93 | – | – | 190 | 12 | 116
